The source of these data is US9073917B2, “Anti-cancer compound and pharmaceutical composition containing the same” (SANOFI, priority 2009, dated 2015).

Data set [1] is described as follows: Metabolism in the presence of human microsomal liver fractions. Type of data set: in vitro ADME. The note with it: percentage disappearance, 5 μM, 20 minutes; for Human microsome: 1 mg/ml proteins, NADPH. The procedure:
(§1) Evaluation of the Metabolism in the Presence of Microsomal Preparations of Human and Murine Livers.
(§2) The compounds of the invention (5 μM) are incubated at physiological temperature over human and murine microsomal liver fractions (1 mg/ml of proteins), diluted in a phosphate buffer, in the presence of bovine serum albumin (1 mg/ml BSA), and the reduced form of nicotinamide adenine dinucleotide phosphate (1 mM NADPH). To terminate incubation, four volumes of acetonitrile containing corticosterone as internal standard (IS) are added. The samples are centrifuged and the supernatants are analysed by liquid chromatography/tandem mass spectrometry coupling (LC/MS-MS). The LC/MS-MS analysis is performed on a QTRAP API4000 mass spectrometer (Sciex) equipped with an 1100 series chromatography system (Agilent) and a Pal CTC automatic injector. The data are acquired and analysed using Analyst 1.4.1 software. The samples are separated on a 3 μm C18 Polaris column, eluted at a flow rate of 0.7 ml/min with a gradient from acetonitrile (solvent B) into water containing 0.1% formic acid (solvent A). The elution programme is composed of the gradient from 20 to 90% of solvent B in 2 minutes, an isocratic stage at 90% of solvent B, for 0.9 minute, and a return to the initial conditions in 0.1 minute. The area of the chromatographic peaks for the compound and for the internal standard are integrated using the Analyst-Classic algorithm. The metabolic stability of the products of the invention is estimated by comparing the integration ratios (ion currents of the compounds/ion current IS) measured after 0 minute (t0) and 20 minutes (t20) of incubation. The metabolic stability is then expressed as a percentage disappearance in accordance with the following formula: Metabolism %=(ratio of peaks at t0−ratio of peaks at t20)/ratio of peaks at t0

Data set [2] concerns tumour cell line HeLa. In words: Cell proliferation, 14C-thymidine incorporation, HeLa. Type of data set: cell-based. An excerpt: Measurement of the Cell Proliferation
(Incorporation of labelled thymidine or its analogues reports DNA synthesis.)

For data set [3], the target named is Aurora B/Incenp (Homo sapiens (Human), UniProt Q96GD4). In words: Aurora B/Incenp kinase activity, radioactive 33P incorporation into NuMA fragment.
Description: (§3) The kinase activity is measured by a radioactive assay of the amount of radioactive phosphate (^33P) incorporated into a fragment of the protein NuMA (Nuclear Mitotic Apparatus protein) after 30 minutes of incubation at 37° C. […] In each plate, there are eight control wells: four positive controls (maximum kinase activity), for which measurement is made in the presence of enzyme and substrate and in the absence of compound of the invention, and four negative controls (background) for which measurement is made in the absence of enzyme, substrate and test compound.
The two proteins form a complex which is called Aurora B/Incenp. […] This fragment is used as substrate.
Data set [4] has as its target PDE3A (Homo sapiens (Human), UniProt Q14432). In words: Effect on the activity of the enzyme PDE3 (CEREP, HTRF). The note with it: for inhibition at 1 µM: read-out: PDE3 inhibition at 1000 nM; for IC50: read-out: IC50 PDE3, recombinant PDE3A, substrate cAMP. (In general: TR-FRET usually uses a lanthanide donor and a delayed reading to cut background.)
Excerpt: Evaluation of the Effect of the Compounds of the Invention on the Activity of the Enzyme PDE3
The nature of data set [5]: Metabolism in the presence of murine microsomal liver fractions. The class given is in vitro ADME. The note with it: percentage disappearance, 5 μM, 20 minutes; for Mouse microsome: 1 mg/ml proteins, NADPH. The procedure:
as §1, §2

For data set [6], the system named is HCT116. Particulars: read-out: IC50 HCT116; HCT116, 96 hours treatment.
Description: (§4) The cell proliferation is estimated by the amount of ^14C-thymidine incorporated in the cells.
(§5) D0: the cells are seeded in 96-well Cytostar plates in 180 μL of culture medium. The plates are then placed in an incubator at 37° C., 5% CO2 for four hours. The test products are then added in a volume of 10 μL per well, starting from a 20× solution. This solution contains 2% of DMSO in the culture medium. The final concentration of DMSO is therefore 0.1%. The plates are then placed in an incubator at 37° C./5% CO2 for 72 hours. D3: after 72 hours, 10 μL per well of ^14C-thymidine at 10 μCi/mL in the culture medium are added. The plates are then placed in an incubator at 37° C., 5% CO2 for 24 hours. D4: The incorporation of ^14C thymidine is measured on a Micro-Beta radioactivity counter (Perkin-Elmer) after this 24-hour, “pulse” period. The total time of treatment of the cells with the test product is 96 hours.
(§6) The percentage inhibitions IC50 are calculated in Excel using the following formula:
(§7) [formula] X=Measurement for the Sample CC=Cell Control Blank=Measurement in the wells without cells
Data set [7] is described as follows: Clearance in the presence of human hepatocytes. Particulars: 0.5 or 5 μM, 24 hours, average over different preparations of hepatocytes. Type of data set: in vitro ADME. On the procedure:
The LC/MS-MS analysis is performed on a QTRAP API4000 mass spectrometer (Sciex) equipped with an 1100 series chromatography system (Agilent) and a Pal CTC automatic injector. The data are acquired and analysed using Analyst 1.4.1 software. The samples are separated on a 3 μm C18 Polaris column, eluted at a flow rate of 0.7 ml/min with a gradient from acetonitrile (solvent B) into water containing 0.1% formic acid (solvent A). The elution programme is composed of the gradient from 20 to 90% of solvent B in 2 minutes, an isocratic stage at 90% of solvent B, for 0.9 minute, and a return to the initial conditions in 0.1 minute.

Data set [8] is described as follows: Chemical stability in various media (HPLC). The class given is physicochemical. Particulars: 100 μM, 20° C., 48 hours. On the procedure:
Measurement of the Chemical Stability of the Compounds
The compounds are diluted in the media under study at a final concentration of 100 μM, by dilution of a 10 mM stock solution in DMSO. The solutions are stored at 20° C. for a total time of 48 hours, and the concentration of the compounds under study is measured over time (t=0, 1, 6, 12, 24 and 48 hours) by HPLC. HPLC analysis is carried out with an Agilent system 1100 instrument equipped with a diode array detector on a Luna 018 column, 30×4.6 mm, 3 μm (Phenomenex) which is eluted with a gradient from acetonitrile (solvent B) into water containing 0.5% (v/v) of formic acid (solvent A) at a flow rate of 1.5 ml/min and a temperature of 25° C. The elution programme consists of a gradient from 10 to 90% solvent B in 5 minutes, followed by an isocratic stage of one minute at 90% of solvent B, and return to the initial conditions over one minute. The concentration of the products under study is estimated from the height and area of the characteristic peak of the product under study on a chromatogram at the maximum wavelength of each product. The area and the height measured at each time of sampling are related to the area and height obtained for the sample at time 0. When degradation is observed, a half-life is measured from the resulting time-concentration curve.

In data set [9] the target is Aurora A (Homo sapiens (Human), UniProt O14965). In words: Aurora A kinase activity, radioactive 33P incorporation into NuMA fragment.
Description: as §3
The recombinant human enzyme Aurora A used is expressed in entire form with a poly-Histidine tag in N-terminal position and is produced in E. coli.
Data set [10] concerns HCT116. Description: cells. The note with it: Homo sapiens, HCT-116, 96 h, read-out: IC50 HCT116.
Description: as §4, §5, §6, §7
Setting [11] is: Homo sapiens, 96 h, read-out: IC50 HeLa.
Where [12] appears, read: Homo sapiens, 96 hours treatment, read-out: IC50 HeLa (converted).
Where [13] appears, read: read-out: IC50 Aurora A, 10 nM Aurora A, 1 μM ATP, 500 nM NuMA, 30 min at 37° C.

Like-named read-outs stand apart in the source and are kept apart here.

Sequence of Aurora B/Incenp (Q96GD4 whole entry, the tested form may be a part): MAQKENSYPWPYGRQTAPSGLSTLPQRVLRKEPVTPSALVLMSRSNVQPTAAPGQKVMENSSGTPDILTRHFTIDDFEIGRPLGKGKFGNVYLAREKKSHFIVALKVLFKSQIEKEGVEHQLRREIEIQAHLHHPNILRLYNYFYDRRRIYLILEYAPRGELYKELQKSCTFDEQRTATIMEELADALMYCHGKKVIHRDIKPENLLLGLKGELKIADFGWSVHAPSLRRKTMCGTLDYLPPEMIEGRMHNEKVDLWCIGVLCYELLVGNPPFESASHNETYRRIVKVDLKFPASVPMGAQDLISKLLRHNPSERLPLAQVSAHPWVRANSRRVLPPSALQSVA
Sequence of Aurora B/Incenp (Q9NQS7 821-918 partner): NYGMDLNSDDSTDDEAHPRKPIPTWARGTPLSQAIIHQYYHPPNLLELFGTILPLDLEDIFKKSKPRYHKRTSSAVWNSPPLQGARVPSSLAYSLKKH
Sequence of Aurora A (O14965 whole entry, the tested form may be a part): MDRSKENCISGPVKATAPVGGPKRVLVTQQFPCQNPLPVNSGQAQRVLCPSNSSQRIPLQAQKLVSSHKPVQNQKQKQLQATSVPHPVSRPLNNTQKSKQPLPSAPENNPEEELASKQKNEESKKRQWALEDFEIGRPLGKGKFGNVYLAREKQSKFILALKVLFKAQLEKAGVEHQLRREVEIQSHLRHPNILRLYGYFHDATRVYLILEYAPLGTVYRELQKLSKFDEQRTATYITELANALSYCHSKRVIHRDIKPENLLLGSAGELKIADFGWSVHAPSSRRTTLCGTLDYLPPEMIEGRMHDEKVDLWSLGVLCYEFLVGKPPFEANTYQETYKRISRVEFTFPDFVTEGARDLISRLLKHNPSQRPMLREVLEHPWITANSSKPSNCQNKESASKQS
Sequence of PDE3A (Q14432 whole entry): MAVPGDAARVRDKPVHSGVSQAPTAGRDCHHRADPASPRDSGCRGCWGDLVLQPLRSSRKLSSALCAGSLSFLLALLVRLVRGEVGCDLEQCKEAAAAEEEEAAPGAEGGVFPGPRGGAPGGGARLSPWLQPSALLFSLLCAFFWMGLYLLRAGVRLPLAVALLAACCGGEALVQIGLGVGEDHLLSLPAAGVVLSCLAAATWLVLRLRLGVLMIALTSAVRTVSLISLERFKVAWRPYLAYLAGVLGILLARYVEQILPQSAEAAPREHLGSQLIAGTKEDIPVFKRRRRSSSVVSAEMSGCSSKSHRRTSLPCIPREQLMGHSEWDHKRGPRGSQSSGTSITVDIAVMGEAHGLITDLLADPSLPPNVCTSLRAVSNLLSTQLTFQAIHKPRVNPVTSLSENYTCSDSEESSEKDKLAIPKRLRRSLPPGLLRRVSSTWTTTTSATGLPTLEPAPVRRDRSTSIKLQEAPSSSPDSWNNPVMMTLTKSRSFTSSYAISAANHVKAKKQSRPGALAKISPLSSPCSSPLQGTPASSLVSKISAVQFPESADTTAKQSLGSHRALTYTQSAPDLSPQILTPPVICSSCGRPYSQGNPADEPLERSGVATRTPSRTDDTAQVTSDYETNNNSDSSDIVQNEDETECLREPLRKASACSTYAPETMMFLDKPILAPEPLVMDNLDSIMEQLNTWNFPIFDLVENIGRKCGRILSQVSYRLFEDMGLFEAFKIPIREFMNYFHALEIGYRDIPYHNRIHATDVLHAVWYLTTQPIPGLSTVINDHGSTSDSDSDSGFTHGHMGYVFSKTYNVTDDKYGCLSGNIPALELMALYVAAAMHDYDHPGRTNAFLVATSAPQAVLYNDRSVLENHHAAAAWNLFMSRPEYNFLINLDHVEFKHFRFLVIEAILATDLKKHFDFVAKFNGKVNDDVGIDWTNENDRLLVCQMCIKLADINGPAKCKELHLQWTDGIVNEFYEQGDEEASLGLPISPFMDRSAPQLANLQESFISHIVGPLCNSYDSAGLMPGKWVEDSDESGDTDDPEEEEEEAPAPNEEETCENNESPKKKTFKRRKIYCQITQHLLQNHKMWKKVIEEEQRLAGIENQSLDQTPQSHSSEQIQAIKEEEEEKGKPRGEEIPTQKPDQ

As a reminder, the inhibition is the relative decrease from the control value, in per cent. Turning to `CCOC(=O)c1[nH]cc2c1NC1=C(C(=O)CCC1)C2c1cccc(Oc2nc3ccccc3[nH]2)c1` (racemic) [Example 1, ethyl 8-oxo-9-[3-(1H-benzimidazol-2-yloxy)phenyl]-4,5,6,7,8,9-hexahydro-2H-pyrrolo[3,4-b]quinoline-3-carboxylate], the Human microsome in data set [1] is given as 37%. For the same molecule, the IC50 in [2] (setting [11]) came to 205 nM; in data set [3] it was 4 nM. Also, the inhibition at 1 µM in [4] stood at 78%. The Mouse microsome in [5] came to 31%.

For the molecule `CCOC(=O)c1[nH]cc2c1NC1=C(C(=O)CCC1)C2c1cccc(Oc2nc3ccccc3[nH]2)c1` (single isomer, unassigned) [Example 3, ethyl 8-oxo-9-[3-(1H-benzimidazol-2-yloxy)phenyl]-4,5,6,7,8,9-hexahydro-2H-pyrrolo[3,4-b]quinoline-3-carboxylate], the IC50 in [2] (setting [11]) was above 10000 nM; in [3], 900 nM.

As for `CCOC(=O)c1[nH]cc2c1NC1=C(C(=O)CCC1)C2c1cccc(Oc2nc3ccccc3[nH]2)c1` (stereo not shown) [Example 2, ethyl 8-oxo-9-[3-(1H-benzimidazol-2-yloxy)phenyl]-4,5,6,7,8,9-hexahydro-2H-pyrrole[3,4-b]quinoline-3-carboxylate], in data set [1], the “Metabolism measured in the presence of human microsomal fraction” value was determined as 32% and the Human microsome was 32%. Also, the IC50 in data set [6] worked out at 20 nM. In [2] (96 hours treatment, read-out: IC50 HeLa (converted)), the IC50 was 67 nM. The IC50 in data set [3] (read-out: IC50 Aurora B/Incenp) is 1 nM. Also, the IC50 in data set [4] was found to be 4000 nM. In data set [7], the “Intrinsic clearance measured in the presence of human hepatocytes” value was 0.121 (average of 5 determinations obtained with 5 ml · h^−1 · 10^−6 cells. Further, in [5], the “Metabolism measured in the presence of murine microsomal fraction” value was determined as 50% and the Mouse microsome turned out to be 50%. In data set [8], the “Chemical stability, HCl 0.05N 50/50 water/acetonitrile” value was “stable”; the “Chemical stability, NaOH 0.05N 50/50 water/acetonitrile” value is recorded as “stable”; the “Chemical stability, Phosphate buffer 25 mM pH = 7.4 50/50 water/acetonitrile” value is reported as “stable”; the “Chemical stability, Phosphate buffer 25 mM pH = 7.4 + 1% 2-mercaptoethanol 50/50 water/acetonitrile” value is reported as “stable”. Further, the “Chemical stability, Phosphate buffer 25 mM pH = 7.4 + 1% benzylamine 50/50 water/acetonitrile” value in [8] is “stable”.

Consider `CCOC(=O)c1[nH]cc2c1NC1=C(C(=O)CCC1)C2c1cccc(Sc2nc3ccccc3[nH]2)c1` (stereo not shown) [Example 4], for which the Human microsome in [1] is 77%. Moreover, the IC50 in [2] (setting [11]) was 9660 nM; in data set [3] it was 6 nM. Moreover, the Mouse microsome in data set [5] came to 67%.

As to `O=C1CCCC2=C1C(c1cccc(Oc3nc4ccccc4[nH]3)c1)c1c[nH]nc1N2` (stereo not shown) [Example 5], the figures for the IC50 in [2] (setting [12]), in data set [3] and in data set [9] (setting [13]) were 9630 nM, 6 nM and 23 nM, respectively.

On to `O=C1CNCC2=C1C(c1cccc(Oc3nc4ccccc4[nH]3)c1)c1c[nH]nc1N2` (stereo not shown) [Example 6], for which the IC50 is above 10000 nM in data set [2] (setting [11]) and 13 nM in [3].

`CCOC(=O)c1[nH]cc2c1NC1=C(C(=O)CC(C)(C)C1)C2c1cccc(Oc2nc3ccccc3[nH]2)c1` (stereo not shown) [Example 7]: in [1], the Human microsome amounted to 65%. The IC50 in data set [2] (setting [12]) was 430 nM; in [3], 4 nM; in data set [9] it was 3 nM. For the same molecule, the Mouse microsome in [5] amounted to 96%.

`CCOC(=O)c1[nH]cc2c1NC1=C(C(=O)CC(C)(C)C1)C2c1cccc(Sc2nc3ccccc3[nH]2)c1` (stereo not shown) [Example 8]: the Human microsome in [1] is reported as 80%. For the same molecule, the IC50 is 6860 nM in [2] (setting [12]), 21 nM in [3] and 102 nM in [9]. Also, the Mouse microsome in data set [5] is given as 84%.

For `CC1(C)CC(=O)C2=C(C1)Nc1n[nH]cc1C2c1cccc(Oc2nc3ccccc3[nH]2)c1` (stereo not shown) [Example 10], the IC50 in data set [2] (setting [12]) was 6690 nM; in [3], 9 nM; in data set [9] (setting [13]) it was 22 nM.

On to `CCOC(=O)c1[nH]cc2c1NC1=C(C(=O)CCC1)[C@@H]2c1ccc(Sc2nc3ccccc3[nH]2)o1` [Example 12], for which, in data set [1], the “Metabolism measured in the presence of human microsomal fraction” value is 75% and the Human microsome was 75%. Moreover, the IC50 in data set [2] (setting [11]) worked out at 16 nM. For the same molecule, in data set [4], the IC50 stood at 68 nM. For the same molecule, the “Intrinsic clearance measured in the presence of human hepatocytes” value in [7] is recorded as 0.29 (average of 3 determinations obtained with 3 ml · h^−1 · 10^−6 cells. Besides, in [5], the “Metabolism measured in the presence of murine microsomal fraction” value worked out at 81% and the Mouse microsome is on record as 81%. Also, in data set [10], the IC50 came to 1 nM. In data set [8], the “Chemical stability, HCl 0.05N 50/50 water/acetonitrile” value was “stable”; the “Chemical stability, NaOH 0.05N 50/50 water/acetonitrile” value is recorded as “stable”; the “Chemical stability, Phosphate buffer 25 mM pH = 7.4 50/50 water/acetonitrile” value is reported as “stable”; the “Chemical stability, Phosphate buffer 25 mM pH = 7.4 + 1% 2-mercaptoethanol 50/50 water/acetonitrile” value is on record as “unstable”. The “Chemical stability, Phosphate buffer 25 mM pH = 7.4 + 1% benzylamine 50/50 water/acetonitrile” value in data set [8] is recorded as “stable”.

Consider `CCOC(=O)c1[nH]cc2c1NC1=C(C(=O)CCC1)C2c1ccc(Sc2nc3cccc(OC)c3[nH]2)o1` (stereo not shown) [Example 13], for which the Human microsome in data set [1] is listed as 53%. The IC50 is 20 nM in data set [2] (setting [12]) and 10 nM in data set [3]. Besides, in data set [4], the inhibition at 1 µM was found to be 93%. Besides, the Mouse microsome in [5] is 74%.
